Calls of active or inactive are those of the source. No rule for the calls is given here.
system: Saccharomyces cerevisiae lifespan shortening, growth inhibition; test: yeast lifespan shortening compounds, dose response (AID 849);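 also: yeast growth read as optical density after two days at 30 degrees C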

Structure (SMILES) | IC50
C=CCC1c2cccc(C(=O)O)c2C(=O)N1c1cccc(C)c1 (stereo not given) | 2.79 µM
C=CCNC1=C(Cl)C(=O)c2ccccc2C1=O | > 100 µM (inactive)
COc1ccc(C(=O)NC(=S)NNC(=O)c2cnccn2)cc1OC | 20.5 µM
CC(=O)/C(=N\Nc1ccc(C)cc1)N1CCOCC1 | 11.1 µM
N#CSCC(=O)c1cccc2ccccc12 | 8.65 µM
COc1ccc(-c2cc(-c3ccccc3O)[nH]n2)cc1 | > 100 µM (inactive)
Cc1ccc(N/N=C(\C#N)C(N)=S)c(C)c1 | > 100 µM (inactive)
C=CCSc1nnc2nc3c(nn12)c1cc(C)ccc1n3CC=C | > 100 µM (inactive)
Cc1cccc(N=C2Sc3nc4c(C)c(C)ccc4cc3CN2CCN2CCOCC2)c1 | 44.7 µM
CCOC(=O)/C(=N\Nc1cccc(C(F)(F)F)c1)N(CCOC)CCOC | > 100 µM (inactive)
C=C(C)COc1ccc(-c2[nH]ncc2-c2ccccc2OC)c(O)c1 | > 100 µM (inactive)
CC1CCC2(CC1)NC(=S)N(c1ccccc1)N2 (stereo not given) | 23.6 µM
C(=C\c1nc(N2CCCCCC2)c2ccccc2n1)/c1ccccc1 | 42.1 µM
COc1ccc(OC)c(CCNC(=O)Cn2sc3nc(C)cc(C)c3c2=O)c1 | > 100 µM (inactive)
Cc1cc(C)nc(N/N=C/C2=C(N3CCOCC3)C(=C\c3ccc(Cl)cc3)/CC2)n1 | > 100 µM (inactive)
CN(c1ccccc1)c1ccc(/C=C/[N+](=O)[O-])cc1 | 49.2 µM
O=C(CCSc1nnc(-c2ccncc2)o1)Nc1ccc(Cl)cc1 | 37.7 µM
N/C(Cc1ccc(Cl)c(Cl)c1)=N\OC(=O)c1cccs1 | > 100 µM (inactive)
Cc1ccc2c(c1)-c1nc3ccccc3cc1C2=NC1CCCCC1 | 35.6 µM
CCC1CCCCN1C(=O)CSc1nnc(-c2ccc(OC)cc2)o1 (stereo not given) | > 100 µM (inactive)
Cc1cc2nc(C)n3c4ccccc4nc3n2n1 | 15.4 µM
Cc1ccc(/C(N)=N/OC(=O)c2ccc(Cl)cc2Cl)cc1 | 18.3 µM
COc1ccc(/C=C2/C(=O)ON=C2c2ccccc2)cc1OC | 33.3 µM

Structure (SMILES) | IC50
O=C(N/N=C/c1cc2c3c(c1O)CCCN3CCC2)c1ccccc1O | 37.5 µM
CCOC(=O)C1CCCCN1C(=O)CCc1c(C)nc2cc(-c3ccccc3)nn2c1C (stereo not given) | > 100 µM (inactive)
Cc1cc(-c2ccco2)c(C#N)c2nc3ccccc3n12 | 5.77 µM
CCc1ccc2c(c1)C1(NN=C(c3cccc4ccccc34)S1)C(=O)N2 (stereo not given) | 41.3 µM
O=C1C=C(c2ccccc2)C(=O)N1Nc1ccccc1 | 12 µM
Cc1nc(Nc2ccc(Cl)c(Cl)c2)sc1C(=O)Nc1ccccc1 | > 100 µM (inactive)
CN1CCN(Cc2cc(COCc3ccccc3)c3cccnc3c2O)CC1 | 26 µM
CCCCCCCOC(=O)C[N+](C)(C)CCOC1CC2CCC1(C)C2(C)C (stereo not given) | 28.4 µM
CCCCCCCCCCn1c2c(c(=N)c3c1CCC3)CCC2 | 9.12 µM
NNC(=O)c1ccc(COc2cccc3ccccc23)cc1 | 30.3 µM
COC(=O)Cc1cc(=O)n(-c2nc3ccccc3[nH]2)[nH]1 | 21.7 µM
CCOc1ccc(/C=C/C(=O)c2cc(Br)ccc(=O)c2O)cc1 | 11.5 µM
CC(C)(C)c1cc(C(c2cccnc2)N2CCN(CCO)CC2)cc(C(C)(C)C)c1O (stereo not given) | 17.3 µM
Oc1c(CN2CCc3ccccc3C2)cc(Cl)c2cccnc12 | 16 µM
COC(=O)CSCc1nc2ccccc2[nH]c1=O | > 100 µM (inactive)
N/C(Cc1ccc(Cl)cc1)=N\OC(=O)c1ccccc1 | 27.1 µM
O=c1[nH]c2ccccc2c2nc3ccccn3c12 | 40 µM
CC1Cc2ccccc2N1C(=O)CSC1=NCCS1 (stereo not given) | > 100 µM (inactive)
COC(=O)c1ccc(C(=O)OC)c(NC(=O)CSc2cccc[n+]2[O-])c1 | 0.822 µM
CC(NC(=O)/C(C#N)=C/c1ccc(Cl)c([N+](=O)[O-])c1)c1ccccc1 (stereo not given) | > 100 µM (inactive)
COc1cc(/C=C2/C(=O)ON=C2c2ccccc2)ccc1O | 8.49 µM
Cc1ccccc1C(=O)O/N=C/c1c(N2CCOCC2)n(C)c2ccccc12 | 49.9 µM
COc1cc(CNCCN2CCOCC2)ccc1OCc1cccc(Cl)c1 | > 100 µM (inactive)

Structure (SMILES) | IC50
CC(C)(C)c1ccc(NC(=O)COC(=O)c2ccc([N+](=O)[O-])s2)cc1 | 34 µM
c1ccc(-c2nc3c(ccc4ccccc43)[nH]2)nc1 | 30.7 µM
Cc1ccc(C)c(-n2nnnc2SCC(=O)Nc2cccc(-c3nnc4n3CCCCC4)c2)c1 | > 100 µM (inactive)
Oc1ccc(/C=C/c2nc(-c3ccccc3O)n(-c3ccccc3)n2)cc1 | > 100 µM (inactive)
OC(CNCCc1ccc(C(F)(F)F)cc1)COc1ccc2ccccc2c1 (stereo not given) | > 100 µM (inactive)
CCn1c(Sc2nc(C)nc3scc(-c4cccs4)c23)n[nH]c1=O | > 100 µM (inactive)
Oc1ccc(Cl)cc1Cc1cc(Cl)ccc1O | 21 µM
Cc1ccc(/C=C/C(=O)c2ccccc(=O)c2O)cc1C | 5.31 µM
Cc1noc2ncnc(Sc3ccccc3Cl)c12 | 26.6 µM
O=C(O)C1C2C=CC(O2)C1C(=O)NC1CCCc2ccccc21 (stereo not given) | > 100 µM (inactive)
O=C(/C(=C/O)N=Nc1ccccc1)c1ccncc1 | 14.5 µM
Cc1conc1NC(c1cccs1)c1ccc2cccnc2c1O (stereo not given) | 40.8 µM
C=C(C)COc1ccc(-c2[nH]ncc2-c2ccccc2)c(O)c1 | 20.4 µM
CC1(C)Cc2c(C#N)c(N)sc(=S)c2CO1 | > 100 µM (inactive)
c1cnc2c(c1)ccc1cccnc12 | 13.3 µM
COc1ccc(C(=O)NC(=S)NNC(=O)c2cnccn2)cc1 | 16.3 µM
CCn1c2ccccc2c2cc(Nc3cc(C)nc4ncnn34)ccc21 | > 100 µM (inactive)
CCc1cc2c(cc(C(=O)O)n2C)s1 | 38.2 µM
Cc1nc2ccc(NC(=O)c3cc([N+](=O)[O-])cc([N+](=O)[O-])c3Cl)cc2s1 | 28.9 µM
Cc1ccc(CNC(=O)c2ccc(Cn3nc(C)c(Cl)c3C)o2)cc1 | 12.4 µM
CC1CCCCN1S(=O)(=O)c1coc(C(N)=O)c1 (stereo not given) | > 100 µM (inactive)
CCSc1nc(N)nc(-c2cccs2)c1C#N | 24.8 µM
Cc1ccc2c(c1)C(=NC1CCCCC1)c1cc3ccccc3nc1-2 | 41.3 µM

Structure (SMILES) | IC50
Cc1cc(O)c(/C=N/Nc2ccc(Cl)cc2)c(=O)o1 | 5.9 µM
CC(=O)N1CCN(c2ccc(OC[C@H]3CO[C@](Cn4ccnc4)(c4ccc(Cl)cc4Cl)O3)cc2)CC1 | 9.27 µM
O=[N+]([O-])c1cc(/C=N/O)ccc1Sc1ccccc1 | > 100 µM (inactive)
Cc1cccc(OCCCOc2cccc3cccnc23)c1C | 26.5 µM
CCOCCCNC(=O)c1ccc(Br)cc1 | > 100 µM (inactive)
Clc1ccccc1N/N=C/c1ccc2c(c1)OCO2 | 32.5 µM
S=C(NCC1CCCCC1)Nc1ccc(Oc2ccccc2)cc1 | > 100 µM (inactive)
O=C(O)c1ccccc1C(=O)NNc1ccc(Cl)cc1 | 4.61 µM
Nc1c(Cl)ncnc1N/N=C/c1ccccn1 | 11.2 µM
CCOC(=O)C1C(C)N=C2SCC(=O)N2C1c1cccc(Br)c1 (stereo not given) | > 100 µM (inactive)
Nc1c(C(=O)NCCc2ccccc2)c2nc3ccccc3nc2n1CCN1CCOCC1 | 22.3 µM
c1ccc(-c2nc3nonc3nc2-c2ccccc2)cc1 | > 100 µM (inactive)
Cc1c(N=Cc2cc(Br)cc(Br)c2O)cccc1C(=O)O | 23.7 µM
Oc1c(CN2CCCCC2)cc(Br)c2cccnc12 | 11.2 µM
Cc1cc(C)c2c(N=NN3CCCCC3)[nH]nc2n1 | 5.02 µM
C=CCSC(=C(C#N)C#N)c1cc2c([nH]1)CCCC2 | > 100 µM (inactive)
CC1CCN(c2nc(/C=C/c3ccccc3)nc3ccccc23)CC1 | 24.7 µM
COC1=C(c2ccccc2)C(=O)c2ccccc2C1=O | 16.2 µM
NC(N)=N/N=C/c1ccc(OCc2ccc(Cl)cc2Cl)cc1 | > 100 µM (inactive)
CC(=O)NC1C(=O)N=C(SCC(=O)NC2CCCCC2)NC1=O (stereo not given) | > 100 µM (inactive)
COc1ccc(-c2cc3nc(C)cc(N4CC(C)CC(C)C4)n3n2)cc1 (stereo not given) | 42.2 µM
CCc1ccc(C2NC(=S)NC3=C2C(=O)N(c2ccccc2OC)C(c2ccc(CC)cc2)N3)cc1 (stereo not given) | > 100 µM (inactive)
O=c1[nH][nH]cc1C=Nc1ccccc1O | > 100 µM (inactive)

Structure (SMILES) | IC50
COc1ccc(NCc2nc3ccccc3n2CCOc2ccc(C)cc2)cc1 | 31.2 µM
Cc1cc(N2CCN(C(=O)c3ccco3)CC2)n2ncc(-c3ccccc3)c2n1 | > 100 µM (inactive)
CC1(C)C[C@H]2C=C(C=O)[C@]3(C=O)C[C@]3(C)[C@H]2C1 | 5.25 µM
C=CCn1c(C)cc(C(=O)CSc2nnc(NCc3ccccc3)s2)c1C | > 100 µM (inactive)
O=[N+]([O-])c1cc(Cc2ccccc2)cc(C=Nc2ccc(N3CCOCC3)cc2)c1O | > 100 µM (inactive)
CCc1cccc2c(C(=O)COC(=O)c3ccc([N+](=O)[O-])s3)c[nH]c12 | 29.2 µM
OC(CNCC1CCCO1)Cn1c2ccc(Br)cc2c2cc(Br)ccc21 (stereo not given) | > 100 µM (inactive)
O=C1C(=O)c2c(C(=O)c3ccccc3)coc2-c2ccccc21 | 13.4 µM
CCS(=O)(=O)n1nc(-c2ccc(Cl)cc2)nc1SCc1ccccc1 | > 100 µM (inactive)
CC(C)(C)C(=O)O/N=C1/C(=O)N(c2ccccc2)c2ccccc21 | 30.6 µM
NNC(=O)c1ccc(COc2ccc3c(c2)CCC3)o1 | 15.1 µM
CN1CCN(C2=Cc3cc(Cl)ccc3Sc3cc(F)ccc32)CC1 | 15.2 µM
O=C(Oc1c(Cl)cc(Cl)c2cccnc12)c1cccc([N+](=O)[O-])c1 | 2.95 µM
CC1=NOC(=O)/C1=C\c1ccc(-c2ccc(Cl)cc2Cl)o1 | > 100 µM (inactive)
CCN1/C(=C/c2ccc3cc(C)ccc3[n+]2CC)Sc2ccccc21 | 4.48 µM
Cc1cccc(C(=O)NC(=S)NNC(=O)c2cccs2)c1 | 30.6 µM
Fc1ccc(N/N=C2/CC(c3ccccc3)Oc3ccccc32)c(F)c1 (stereo not given) | 27.7 µM
O=[N+]([O-])c1ccc(O)c(/C=N/Nc2ccccn2)c1 | 31 µM
CCn1c(=O)c(C(=O)Nc2nc3ccccc3[nH]2)c(O)c2ccccc21 | > 100 µM (inactive)
CCCc1ccc(Oc2cn[nH]c2-c2ccc(O)c(C)c2O)cc1 | 6.65 µM
O=C(O)CCC(=O)N1CCN(c2nc(-c3ccccc3Cl)c3cc(Br)ccc3n2)CC1 | 29.3 µM
O=C(Nc1nc(-c2ccccn2)cs1)c1ccc(Br)s1 | 9.04 µM
Clc1ccc2nnnc(-c3ccccc3)c2c1 | 38.8 µM
